Results: ChEMBL document CHEMBL5532714, “Discovery of Kebanmycins with Antibacterial and Cytotoxic Activities from the Mangrove-Derived Streptomyces sp. SCSIO 40068” (J Nat Prod, 2024)
Values after ≈ are worked out from the molar mass of the structure shown. Structures can show the parent of a compound that is named as a salt.

Key:
[1] = test system: Staphylococcus aureus; assay: Antibacterial activity against methicillin-resistant Staphylococcus aureus 1862 assessed as bacterial growth inhibition incubated for 16 hrs by broth microdilution method; type: functional
[2] = test system: Acinetobacter baumannii; assay: Antibacterial activity against Acinetobacter baumannii 19606 assessed as bacterial growth inhibition incubated for 16 hrs by broth microdilution method; type: functional
[3] = (§1) Cytotoxicity against human MCF7 cells assessed as cell growth inhibition; type: toxicity, cell-based; conditions: MCF7 cells
[4] = test system: Vibrio alginolyticus; assay: Antibacterial activity against Vibrio alginolyticus ATCC 13214 assessed as bacterial growth inhibition incubated for 16 hrs by broth microdilution method; type: functional
[5] = test system: Bacillus subtilis; assay: Antibacterial activity against Bacillus subtilis 1064 assessed as bacterial growth inhibition incubated for 16 hrs by broth microdilution method; type: functional
[6] = test system: Staphylococcus aureus; assay: Antibacterial activity against methicillin-resistant Staphylococcus aureus shhs-A1 assessed as bacterial growth inhibition incubated for 16 hrs by broth microdilution method; type: functional
[7] = (§2) Cytotoxicity against human HepG2 cells assessed as cell growth inhibition; type: toxicity, cell-based; conditions: HepG2 cells
[8] = test system: Staphylococcus aureus; assay: Antibacterial activity against methicillin-resistant Staphylococcus aureus 669 assessed as bacterial growth inhibition incubated for 16 hrs by broth microdilution method; type: functional
[9] = test system: Staphylococcus aureus; assay: Antibacterial activity against methicillin-resistant Staphylococcus aureus 991 assessed as bacterial growth inhibition incubated for 16 hrs by broth microdilution method; type: functional
[10] = test system: Staphylococcus aureus; assay: Antibacterial activity against Staphylococcus aureus ATCC 29213 assessed as bacterial growth inhibition incubated for 16 hrs by broth microdilution method; type: functional
[11] = test system: MCF7; assay: as §1; type: toxicity, cell-based; conditions: mcf7
[12] = test system: HepG2; assay: as §2; type: toxicity, cell-based; conditions: hepg2

Compound | MIC [1] [µg/mL] | MIC [2] [µg/mL] | IC50 [3] [µM] | MIC [4] [µg/mL] | MIC [5] [µg/mL] | MIC [6] [µg/mL] | IC50 [7] [µM] | MIC [8] [µg/mL] | MIC [9] [µg/mL] | MIC [10] [µg/mL] | Activity [11] | Activity [12]
CCC[C@@H]1Cc2cc3c(c(O)c2C(=O)O1)-c1c(c(OC)c2oc4ccc(O[C@H]5C[C@@H](O)[C@H](O[C@H]6C[C@@H](O)[C@H](O[C@H]7C[C@@H](O)[C@H](O)[C@@H](C)O7)[C@@H](C)O6)[C@@H](C)O5)c(O)c4c(=O)c2c1O)[C@H](O)[C@H]3O | 1 (≈ 1.08 µM) | > 64 | 1.8 | > 64 | 1 (≈ 1.08 µM) | 2 (≈ 2.16 µM) | 4.4 | 2 (≈ 2.16 µM) | 2 (≈ 2.16 µM) | 2 (≈ 2.16 µM) |  | 
CCC[C@@H]1Cc2cc3c(c(O)c2C(=O)O1)-c1c(c(OC)c2oc4ccc(O[C@H]5C[C@@H](O)[C@H](O[C@H]6C[C@@H](O)[C@H](O[C@H]7C[C@@H](OC)[C@H](O)[C@@H](C)O7)[C@@H](C)O6)[C@@H](C)O5)c(O)c4c(=O)c2c1O)C[C@H]3O | 0.125 (≈ 0.135 µM) | > 64 | 0.12 | > 64 | > 64 | 0.125 (≈ 0.135 µM) | 0.25 | 0.5 (≈ 0.541 µM) | 0.5 (≈ 0.541 µM) | 0.125 (≈ 0.135 µM) |  | 
CCC[C@@H]1Cc2cc3c(c(O)c2C(=O)O1)-c1c(c(OC)c2oc4ccc(O[C@H]5C[C@@H](O)[C@H](O[C@H]6C[C@@H](O)[C@H](O[C@H]7C[C@@H](OC)[C@H](O)[C@@H](C)O7)[C@@H](C)O6)[C@@H](C)O5)c(O)c4c(=O)c2c1O)[C@H](O)[C@H]3O | 1 (≈ 1.06 µM) | > 64 | 4.1 | > 64 | 0.125 (≈ 0.133 µM) | 2 (≈ 2.13 µM) | 7.9 | 2 (≈ 2.13 µM) | 1 (≈ 1.06 µM) | 2 (≈ 2.13 µM) |  | 
CCC[C@@H]1Cc2cc3c(c(O)c2C(=O)O1)-c1c(c(OC)c2oc4ccc(O[C@H]5C[C@@H](O)[C@H](O)[C@@H](C)O5)c(O)c4c(=O)c2c1O)[C@H](O)[C@H]3O | 1 (≈ 1.5 µM) | > 64 | 0.76 | > 64 | 4 (≈ 6 µM) | 0.5 (≈ 0.75 µM) | 31 | 2 (≈ 3 µM) | 2 (≈ 3 µM) | 0.5 (≈ 0.75 µM) |  | 
COc1cccc2c1C(=O)c1c(O)c3c(c(O)c1C2=O)C[C@@](O)(C(=O)CO)C[C@@H]3O[C@H]1C[C@H](N)[C@H](O)[C@H](C)O1 [DOXORUBICIN HYDROCHLORIDE] |  |  |  |  |  |  | 3.1 |  |  |  |  | 
CCCC(=O)Cc1cc2c(c(O)c1C(=O)O)-c1cc3c(c(O)c1CC2)C(=O)c1c(O)cc(O)cc1C3=O | 16 (≈ 31.8 µM) | > 64 |  | > 64 | > 64 | 16 (≈ 31.8 µM) |  | 16 (≈ 31.8 µM) | 16 (≈ 31.8 µM) | 32 (≈ 63.7 µM) | Non-Toxic | Non-Toxic
CCC[C@@H]1Cc2cc3c(c(O)c2C(=O)O1)-c1c(c(OC)c2oc4ccc(O)c(O)c4c(=O)c2c1O)[C@H](O)[C@H]3O | 4 (≈ 7.46 µM) | 64 (≈ 119 µM) | 0.46 | 32 (≈ 59.6 µM) | 16 (≈ 29.8 µM) | 8 (≈ 14.9 µM) | 13 | 8 (≈ 14.9 µM) | 8 (≈ 14.9 µM) | 8 (≈ 14.9 µM) |  | 
O=C(O)c1cn(C2CC2)c2cc(N3CCNCC3)c(F)cc2c1=O [CIPROFLOXACIN] |  | 0.125 (≈ 0.377 µM) |  | 0.125 (≈ 0.377 µM) |  |  |  |  |  |  |  | 
CN[C@H](CC(C)C)C(=O)N[C@H]1C(=O)N[C@@H](CC(N)=O)C(=O)N[C@H]2C(=O)N[C@H]3C(=O)N[C@H](C(=O)N[C@H](C(=O)O)c4cc(O)cc(O)c4-c4cc3ccc4O)[C@H](O)c3ccc(c(Cl)c3)Oc3cc2cc(c3O[C@@H]2O[C@H](CO)[C@@H](O)[C@H](O)[C@H]2O[C@H]2C[C@](C)(N)[C@H](O)[C@H](C)O2)Oc2ccc(cc2Cl)[C@H]1O [VANCOMYCIN] |  |  |  |  | 0.25 (≈ 0.173 µM) |  |  |  |  |  |  | 
